In patent US10881110B2, “Herbicidal compositions comprising isoxazolo[5,4-b]pyridines” (BASF SE, priority 2014, dated 2021):

Columns and labels:
Assay in all cases: greenhouse post-emergence herbicidal test
[1] = system: CONAR; format: in vivo, Convolvulus arvensis; design: key: rating on a scale from 0 to 100
Procedure, shortened: (§1)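 Visual rating at 20 days after treatment used a 0–100 scale, where 100 meant no emergence or complete destruction of above-ground parts. Seedlings of 1–15 cm, grown at species-dependent 10-25° C or 20-35° C, received water-based spray liquor containing the formulated components.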

[2] = system: GALAP; format: in vivo, Galium aparine; design: key to herbicidal activity against GALAP found: rating on a scale from 0 to 100; details: post emergence
Procedure, shortened: (§2)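 Herbicidal activity scored on a 0 (no damage) to 100 (plants destroyed) scale, usually 20 days after water-based spraying of 1–15 cm plants grown in loamy sand at 10-25 °C or 20-35 °C depending on species. Components were applied from 10% emulsion concentrates; Colby's E=X+Y−(X·Y/100) gives the additive expectation.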

[3] = system: GERDI; format: in vivo, Geranium dissectum; design: key to herbicidal activity against GERDI found: rating on a scale from 0 to 100; details: post emergence
Procedure, shortened: as §1

[4] = system: PANMI; format: in vivo, Panicum miliaceum; details: application rate a.i.: I.1 125 g/ha, alone or as mixture (composition 1.113)
Experimental: (§3) The culture containers used were plastic pots containing medium loamy sand with approximately 4.6% of humus and 69.9% sand as substrate. The seeds of the test plants were sown separately for each species.
(§4) For the post-emergence treatment, the test plants were grown to a plant height of from 1 to 15 cm, depending on the plant habit, and only then treated with the active compounds which had been suspended or emulsified in water. To this end, the test plants were either sown directly, and grown in the same containers, or they were first grown separately as seedlings and transplanted into the test containers a few days prior to treatment.
(§5) Depending on the species, the plants were kept at 10-25° C. and 20-35° C., respectively.
(§6) The test period extended over 1 to 3 weeks. During this time, the plants were tended and their response to the individual treatments was evaluated 20 days after treatment except mentioned otherwise.
(§7) Evaluation was carried out using a scale from 0 to 100. 100 means no emergence of the plants, or complete destruction of at least the above-ground parts, and 0 means no damage or normal course of growth.
(§8) The respective stated components A and B, and, if appropriate, C, were formulated as a 10% by weight strength emulsion concentrate and, with addition of the amount of solvent system, introduced into the spray liquor used for applying the active compound. In the examples, the solvent used was water.
(§9) In the examples below, using the method of S. R. Colby (1967) “Calculating synergistic and antagonistic responses of herbicide combinations”, Weeds 15, p. 22 ff., the value E, which is expected if the activity of the individual active compounds is only additive, was calculated. E=X+Y−(X·Y/100)

[5] = system: GERPU; format: in vivo, Geranium pusillum; details: application rate a.i.: I.1 31.25 g/ha
Experimental: as §3, §4, §5, §6, §7, §8, §9

[6] = system: LAMAM; format: in vivo, Lamium amplexicaule; design: key: scale 0 to 100
Experimental: as §3, §4, §5, §6, §7, §8, §9

[7] = system: MATCH; format: in vivo, Matricaria recutita; design: key to herbicidal activity against MATCH found: rating on a scale from 0 to 100; details: post emergence
Procedure, shortened: as §1

[8] = system: PAPRH; format: in vivo, Papaver rhoeas; details: application rate a.i.: I.1 62.5 g/ha, B.87 (carfentrazone-ethyl) 1.75 g/ha, alone or as mixture (composition 1.87)
Procedure, shortened: as §1

[9] = system: SEBEX; format: in vivo, Sesbania exaltata; details: application rate a.i.: I.1 31.25 g/ha
Experimental: as §3, §4, §5, §6, §7, §8, §9

[10] = system: ABUTH; format: in vivo, Abutilon theophrast; design: key to herbicidal activity against ABUTH found: rating on a scale from 0 to 100; details: post emergence
Procedure, shortened: as §1

[11] = system: ALOMY; format: in vivo, Alopecurus myosuroides; design: key to herbicidal activity against ALOMY found: rating on a scale from 0 to 100; details: post emergence, 20 days after treatment
Procedure, shortened: as §1

[12] = system: APESV; format: in vivo, Apera spica-venti; design: key to herbicidal activity against APESV found: rating on a scale from 0 to 100; details: post emergence, 20 days after treatment
Procedure, shortened: as §1

[13] = system: CHEAL; format: in vivo, Chenopodium album
Experimental: as §3, §4, §5, §6, §7, §8, §9

[14] = system: ECHCG; format: in vivo, Echinochloa crus-galli; design: key to herbicidal activity against ECHCG found / herbicidal activity against ECHCH found: scale 0 to 100; details: post emergence, 20 days after treatment
Procedure, shortened: as §1

[15] = system: LOLMU; format: in vivo, Lolium multiflorum
Experimental: as §3, §4, §5, §6, §7, §8, §9

[16] = system: POLCO; format: in vivo, Polygonum convolvulus; design: key to herbicidal activity against POLCO found: rating on a scale from 0 to 100; details: post emergence
Procedure, shortened: as §2

[17] = system: STEME; format: in vivo, Stellaria media; design: key: scale 0 to 100
Procedure, shortened: as §1

[18] = system: PHACA; format: in vivo
Experimental: as §3, §4, §5, §6, §7, §8, §9

[19] = system: AMBEL; format: in vivo, Ambrosia artemisiifolia; design: key: rating on a scale from 0 to 100; details: application rate a.i.: I.1 31.25 g/ha, B.139 (pyroxasulfone) 12.5 g/ha, alone or as mixture (composition 1.139)
Procedure, shortened: as §1

[20] = system: POLPE; format: in vivo, Persicaria maculosa; design: key: scale 0 to 100; details: application rate a.i.: I.1 31.25 g/ha, B.139 (pyroxasulfone) 12.5 g/ha, alone or as mixture (composition 1.139)
Experimental: as §3, §4, §5, §6, §7, §8, §9

[21] = application rate a.i.: I.1 125 g/ha, B.113 (glyphosate) 33.75 g/ha, alone or as mixture (composition 1.113)
[22] = application rate a.i.: I.1 125 g/ha, B.113 (glyphosate) 135 g/ha, alone or as mixture (composition 1.113)
[23] = application rate a.i.: I.1 62.5 g/ha, B.87 (carfentrazone-ethyl) 1.75 g/ha, alone or as mixture (composition 1.87)
[24] = B.87 (carfentrazone-ethyl) 1.75 g/ha, alone or as mixture (composition 1.87)
[25] = application rate a.i.: I.1 31.25 g/ha, B.87 (carfentrazone-ethyl) 1.75 g/ha, alone or as mixture (composition 1.87)
[26] = a.i. g/ha: I.1 7.8, B.67 125, 20 days after treatment
[27] = a.i. g/ha: I.1 15.6, B.67 125, 20 days after treatment
[28] = a.i. g/ha: I.1 31.25, B.67 125, 20 days after treatment
[29] = a.i. g/ha: I.1 31.25, B.67 125, 20 days after treatment, sub-table r36-r43
[30] = a.i. g/ha: I.1 62.5, B.67 125, 20 days after treatment
[31] = a.i. g/ha: I.1 6.9, B.67 62.5, 20 days after treatment
[32] = a.i. g/ha: I.1 20.8, B.67 62.5, 20 days after treatment
[33] = a.i. g/ha: I.1 62.5, B.67 62.5, 20 days after treatment
[34] = application rate a.i.: I.1 31.25 g/ha, B.139 (pyroxasulfone) 25 g/ha, alone or as mixture (composition 1.139)
[35] = application rate a.i.: I.1 31.25 g/ha, B.139 (pyroxasulfone) 12.5 g/ha, alone or as mixture (composition 1.139)
[36] = B.139 (pyroxasulfone) 25 g/ha, alone or as mixture (composition 1.139)

## O=C(O)CNCP(=O)(O)O [B.113, glyphosate]
[1]; [21]
  herbicidal activity against CONAR found: 45
[2]; [21]
  herbicidal activity against GALAP found: 50
[2]; [22]
  herbicidal activity against GALAP found: 80
[3]; [22]
  herbicidal activity against GERDI found: 80
[4]; B.113 (glyphosate) 33.75 g/ha
  herbicidal activity against PANMI, found: 80
[4]; B.113 (glyphosate) 135 g/ha
  herbicidal activity against PANMI, found: 90

## CCOC(=O)C(Cl)Cc1cc(-n2nc(C)n(C(F)F)c2=O)c(F)cc1Cl (stereo not drawn) [B.87, carfentrazone-ethyl]
[3]; [23]
  herbicidal activity against GERDI found: 70
[5]; [24]
  herbicidal activity against GERPU, found: 75
[6]; [25]
  herbicidal activity against LALAM, found: 80
[6]; [23]
  herbicidal activity against LAMAM, found: 80
[7]; [25]
  herbicidal activity against MATCH found: 75
[7]; [23]
  herbicidal activity against MATCH found: 75
[8]
  herbicidal activity against PAPRH found: 30
[9]; [24]
  herbicidal activity against SEBEX, found: 75

## CCNc1nc(Cl)nc(NC(C)C)n1 [B.67, atrazine]
[10]; [26]
  herbicidal activity against ABUTH found: 60%
[10]; [27]
  herbicidal activity against ABUTH found: 60%
[10]; [28]
  herbicidal activity against ABUTH found: 60%
[10]; [29]
  herbicidal activity against ABUTH found: 60%
[10]; [30]
  herbicidal activity against ABUTH found: 60%
[11]; a.i. g/ha: I.1 6.9, B.67 62.5
  herbicidal activity against ALOMY found: 35%
[11]; a.i. g/ha: I.1 20.8, B.67 62.5
  herbicidal activity against ALOMY found: 35%
[11]; a.i. g/ha: I.1 62.5, B.67 62.5
  herbicidal activity against ALOMY found: 35%
[12]; a.i. g/ha: I.1 2.3, B.67 62.5
  herbicidal activity against APESV found: 60%
[12]; a.i. g/ha: I.1 6.9, B.67 62.5
  herbicidal activity against APESV found: 60%
[13]; [31]
  herbicidal activity against CHEAL found: 75%
[13]; [27]
  herbicidal activity against CHEAL found: 80%
[13]; [32]
  herbicidal activity against CHEAL found: 75%
[13]; [28]
  herbicidal activity against CHEAL found: 80%
[1]; [26]
  herbicidal activity against CONAR found: 65%
[1]; [27]
  herbicidal activity against CONAR found: 65%
[1]; [32]
  herbicidal activity against CONAR found: 60%
[1]; [28]
  herbicidal activity against CONAR found: 65%
[1]; [33]
  herbicidal activity against CONAR found: 60%
[1]; [30]
  herbicidal activity against CONAR found: 65%
[14]; a.i. g/ha: I.1 20.8, B.67 62.5
  herbicidal activity against ECHCG found: 35%
[14]; a.i. g/ha: I.1 62.5, B.67 62.5
  herbicidal activity against ECHCG found: 35%
[2]; [27]
  herbicidal activity against GALAP found: 70%
[2]; [32]
  herbicidal activity against GALAP found: 65%
[2]; [28]
  herbicidal activity against GALAP found: 70%
[2]; [33]
  herbicidal activity against GALAP found: 65%
[3]; [26]
  herbicidal activity against GERDI found: 70%
[3]; [27]
  herbicidal activity against GERDI found: 70%
[3]; [28]
  herbicidal activity against GERDI found: 85%
[3]; [29]
  herbicidal activity against GERDI found: 85%
[3]; [30]
  herbicidal activity against GERDI found: 70%
[15]; [26]
  herbicidal activity against LOLMU found: 35%
[15]; [27]
  herbicidal activity against LOLMU found: 35%
[15]; [28]
  herbicidal activity against LOLMU found: 35%
[15]; [33]
  herbicidal activity against LOLMU found: 20%
[15]; [30]
  herbicidal activity against LOLMU found: 35%
[7]; [28]
  herbicidal activity against MATCH found: 70%
[7]; [29]
  herbicidal activity against MATCH found: 70%
[7]; [30]
  herbicidal activity against MATCH found: 50%
[16]; [27]
  herbicidal activity against POLCO found: 60%
[16]; [32]
  herbicidal activity against POLCO found: 80%
[16]; [28]
  herbicidal activity against POLCO found: 60%
[16]; [33]
  herbicidal activity against POLCO found: 80%
[17]; a.i. g/ha: I.1 2.3, B.67 62.5, 20 days after treatment
  herbicidal activity against STEME found: 80%
[17]; [31]
  herbicidal activity against STEME found: 80%
[17]; [27]
  herbicidal activity against STEME found: 75%
[17]; [32]
  herbicidal activity against STEME found: 80%
[17]; [28]
  herbicidal activity against STEME found: 75%
[17]; [29]
  herbicidal activity against STEME found: 75%
[18]; [28]
  herbicidal activity against PHACA found: 30%
[18]; [30]
  herbicidal activity against PHACA found: 30%

## Cn1nc(C(F)(F)F)c(CS(=O)(=O)C2=NOC(C)(C)C2)c1OC(F)F [B.139, pyroxasulfone]
[10]; [34]
  herbicidal activity against ABUTH found: 60
[19]
  herbicidal activity against AMBEL found: 10
[1]; [35]
  herbicidal activity against CONAR found: 60
[1]; [34]
  herbicidal activity against CONAR found: 60
[5]; B.139 (pyroxasulfone) 12.5 g/ha, alone or as mixture (composition 1.139)
  herbicidal activity against GERPU, found: 0
[5]; [36]
  herbicidal activity against GERPU, found: 25
[6]; [34]
  herbicidal activity against LAMAM, found: 45
[16]; [35]
  herbicidal activity against POLCO found: 15
[20]
  herbicidal activity against POLPE found: 55
[9]; [36]
  herbicidal activity against SEBEX, found: 35
